Earlier results as cited in patent publication US20100310652A1, “COATED EXTENDED RELEASE PHARMACEUTICAL COMPOSITIONS OF LEVETIRACETAM” (Alembic Limited, priority 2007, published 2010).
Values after ≈ are worked out from the molar mass of the structure shown.

How the values were obtained:
[1] = highly permeable
[2] = in 15 minutes, three different pH media

permeability (F) [1]: > 90%
drug released [2]: more than 85%
aqueous solubility: 1040 mg/mL (≈ 6110 mM)
SMILES: CC[C@@H](C(N)=O)N1CCCC1=O [Levetiracetam, (−)-(S)-α-ethyl-2-oxo-1-pyrrolidine acetamide]
